According to patent publication US10870886B2, “Molecular diagnosis of FSHD by epigenetic signature” (University of Massachusetts Medical Center, priority 2014, dated 2020):

How the values were obtained:
DUX4-fl = DUX4-fl mRNA expression by qRT-PCR in myogenic cells treated with epigenetic drugs; assay type: cell-based, human; settings: for DUX4-fl response: cells from nonmanifesting subjects 15B, 28B, 30B; for DUX4-fl levels: healthy control myogenic cells (five cohorts)
Method: (§1) Drug treatment. Stock solutions of 100 mM 5-Aza-2′-deoxycytidine/Decitabine, (Sigma-Aldrich A3656) in DMSO, 5 mM Trichostatin A solution (TSA, Sigma-Aldrich T1952), and 10 mM chaetocin (Sigma-Aldrich C9492) in DMSO were stored at −20° C. and diluted with PBS just before adding to the culture. To minimize culturing artifacts, low passage (<30 population doublings) myoblast cultures were used for all experiments and culture pairs for affected vs healthy or affected vs nonmanifesting were within 1 passage of each other in all instances. Myoblasts were seeded on collagen-coated plates at a cell density of 1.9×10^3/cm^2. Starting the following day, Decitabine (5 μM final concentration) was added daily for a total of 3 days. When used, TSA (200 nM final concentration) or chaetocin (50 nM final concentration) was added to the cells for the last 24 hrs prior to sampling.
qRT-PCR. Total RNAs were extracted using Trizol (Invitrogen) and purified using the RNeasy Mini kit (Qiagen) after on-column DNase I digestion. Total RNA (2 μg) was used for cDNA synthesis using Superscript III Reverse Transcriptase (Invitrogen), and 200 ng of cDNA were used for DUX4-fl qPCR analysis as described. All data were normalized to levels of 18S rRNA [98]. Oligonucleotide primer sequences are provided in [33]. For the analysis of ANKRD1 mRNA expression, 40 ng of cDNA were used with primers hANKRD1 For: […] (SEQ ID NO: 16) and Rev: […] (SEQ ID NO: 17).

[1] = system: ANKRD1 (Ankyrin Repeat Domain 1); assay: ANKRD1 mRNA expression by qRT-PCR in drug-treated myocytes (control gene); assay type: cell-based, human; settings: myocytes of cohorts 07 and 19, affected (A) and control (U)
Method: as §1
qRT-PCR. Total RNAs were extracted using Trizol (Invitrogen) and purified using the RNeasy Mini kit (Qiagen) after on-column DNase I digestion. Total RNA (2 μg) was used for cDNA synthesis using Superscript III Reverse Transcriptase (Invitrogen), and 200 ng of cDNA were used for DUX4-fl qPCR analysis as described. All data were normalized to levels of 18S rRNA [98]. Oligonucleotide primer sequences are provided in [33]. For the analysis of ANKRD1 mRNA expression, 40 ng of cDNA were used with primers hANKRD1 For: […] […]

[2] = cells from FSHD1 individuals manifesting weakness 15A, 28A, 29A, 30A
[3] = myogenic cells of FSHD1-affected subject 03A, relative to untreated, Decitabine 5 μM daily 3 days, TSA 200 nM last 24 hrs

| Compound | DUX4-fl expression (DUX4-fl; [2]) | DUX4-fl response (DUX4-fl) | DUX4-fl expression (DUX4-fl; cohorts 07 and 19) | DUX4-fl levels (DUX4-fl) | DUX4-fl induction (DUX4-fl; [3]) | ANKRD1 expression [1] | DUX4-fl induction (DUX4-fl; cohort 07, as quoted in FIG. 22 legend from FIG. 20) | DUX4-fl induction (DUX4-fl; cohort 19, as quoted in FIG. 22 legend from FIG. 20) | DUX4-fl induction (DUX4-fl; myogenic cells of FSHD1-affected subject 07A, relative to untreated) | DUX4-fl induction (DUX4-fl; myogenic cells of FSHD1-affected subject 09A) | DUX4-fl induction (DUX4-fl; myogenic cells of FSHD1-affected subject 17A, relative to untreated) | DUX4-fl induction (DUX4-fl; myogenic cells of FSHD1-affected subject 19A, relative to untreated) |
| --- | --- | --- | --- | --- | --- | --- | --- | --- | --- | --- | --- | --- |
| CC(/C=C/C(=O)NO)=C\[C@@H](C)C(=O)c1ccc(N(C)C)cc1 [TSA, Trichostatin A] | little to no effect | little to no response | no effect | no effect | showed induction | induced ANKRD1 expression | – | – | – | – | – | – |
| Nc1ncn([C@H]2C[C@H](O)[C@@H](CO)O2)c(=O)n1 [Decitabine, 5-aza-2′-deoxycytidine] | induced DUX4-fl expression | little to no response | – | only mildly induced | 50 fold | – | 20 fold | 32 fold | 120 fold | did not show induction | 3.2 fold | 122 fold |
